# Measurements as given in patent US9303016B2, “Derivatives of aza adamantane and uses thereof” (CONNEXIOS LIFE SCIENCES PVT. LTD., priority 2011, dated 2016).
# Tested on: not given
# Test: not given
# Conditions: phase IIa, 28-days, placebo-controlled, two-step hyperinsulinemic clamp studies; cited from earlier work
row,Structure (SMILES),safety and tolerability
1,CNC(=O)c1ccc(-c2ccc(C3(C(=O)N4CC[C@@]5(C4)OC(=O)c4ccccc45)CC3)cc2)cn1 [INCB13739],safe and well tolerated

# Target: T1, human full length HSD11β1 (Homo sapiens, UniProt P28845)
# T1 construct: transient expression of human full length HSD11β1 expression vector; host or cells: CHO cells, transient transfection
# T1 sequence (P28845 whole entry): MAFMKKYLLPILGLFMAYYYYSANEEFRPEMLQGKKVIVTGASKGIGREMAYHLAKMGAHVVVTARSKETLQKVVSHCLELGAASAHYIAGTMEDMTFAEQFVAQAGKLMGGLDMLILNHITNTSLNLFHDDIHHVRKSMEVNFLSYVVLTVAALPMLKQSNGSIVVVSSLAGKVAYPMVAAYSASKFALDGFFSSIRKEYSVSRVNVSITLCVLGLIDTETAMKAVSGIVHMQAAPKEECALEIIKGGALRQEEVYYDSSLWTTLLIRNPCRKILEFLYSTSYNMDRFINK
# Test: In Vitro HSD11β1 Inhibition Assay
# Format: cell-based
# Conditions: CHO cells transiently expressing human HSD11β1; 200 nM cortisone+500 uM NADPH overnight; cortisone to cortisol by LC/MS-MS; read-out: 11βHSD1 (IC50)
# How it was run: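 Whole-cell assay in CHO cells transiently transfected with full-length human HSD11β1, re-seeded 24 h after transfection. Cells incubated overnight with 200 nM cortisone plus 500 uM NADPH, with or without inhibitor. Cortisone-to-cortisol conversion measured by LC/MS-MS; IC50 (nM) from an 8-point log concentration-inhibition curve.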
row,IC50 [µM],Structure (SMILES)
1,> 0.25,"CC(CC(=O)N1C2CC3CC1CC(O)(C3)C2)c1cn(S(C)(=O)=O)c2cccc(Cl)c12 (stereo not shown) [Example 46, 3-[4-chloro-1-(methylsulfonyl)-1H-indol-3-yl]-1-(5-hydroxy-2-azatricyclo[3.3.1.1^3,7]dec-2-yl)butan-1-one]"
2,0.15 to 0.2,"CC(CC(=O)N1C2CC3CC1CC(C(N)=O)(C3)C2)c1c[nH]c2cccc(Cl)c12 (stereo not shown) [Example 47, 2-[3-(4-chloro-1H-indol-3-yl)butanoyl]-2-azatricyclo[3.3.1.1^3,7]decane-5-carboxamide]"
3,> 0.25,"CC(CC(=O)N1C2CC3CC1CC(C(=O)O)(C3)C2)c1c[nH]c2cccc(C3CC3)c12 (stereo not shown) [Example 51, 2-[3-(4-cyclopropyl-1H-indol-3-yl)butanoyl]-2-azatricyclo[3.3.1.1^3,7]decane-5-carboxylic acid]"
4,> 0.25,"CC(CC(=O)N1C2CC3CC1CC(C(=O)O)(C3)C2)c1c[nH]c2cccc(Br)c12 (stereo not shown) [Example 55, 2-[3-(4-bromo-1H-indol-3-yl)butanoyl]-2-azatricyclo[3.3.1.1^3,7]decane-5-carboxylic acid]"
5,< 0.1,"CC(CC(=O)N1C2CC3CC1CC(C(N)=O)(C3)C2)c1c[nH]c2cccc(C3CC3)c12 (stereo not shown) [Example 56, 2-[3-(4-cyclopropyl-1H-indol-3-yl)butanoyl]-2-azatricyclo[3.3.1.1^3,7]decane-5-carboxamide]"
6,> 0.25,"Cc1cccc2[nH]cc(C(C)CC(=O)N3C4CC5CC3CC(C(=O)O)(C5)C4)c12 (stereo not shown) [Example 57, 2-[3-(4-methyl-1H-indol-3-yl)butanoyl]-2-azatricyclo[3.3.1.1^3,7]decane-5-carboxylic acid]"
7,< 0.1,"CC(CC(=O)N1C2CC3CC1CC(CO)(C3)C2)c1c[nH]c2cccc(Cl)c12 (stereo not shown) [Example 58, 3-(4-chloro-1H-indol-3-yl)-1-[5-(hydroxymethyl)-2-azatricyclo[3.3.1.1^3,7]dec-2-yl]butan-1-one]"
8,0.1 to 0.15,"CC(CC(=O)N1C2CC3CC1CC(C#N)(C3)C2)c1c[nH]c2cccc(Cl)c12 (stereo not shown) [Example 59, 2-[3-(4-chloro-1H-indol-3-yl)butanoyl]-2-azatricyclo[3.3.1.1^3,7]decane-5-carbonitrile]"
9,> 0.25,"Cc1[nH]c2cccc(Cl)c2c1C(C)CC(=O)N1C2CC3CC1CC(O)(C3)C2 (stereo not shown) [Example 60, 3-(4-chloro-2-methyl-1H-indol-3-yl)-1-(5-hydroxy-2-azatricyclo[3.3.1.1^3,7]dec-2-yl)butan-1-one]"
10,> 0.25,"CC(CC(=O)N1C2CC3CC1CC(C(=O)O)(C3)C2)c1c[nH]c2ccccc12 (stereo not shown) [Example 61, 2-[3-(1H-indol-3-yl)butanoyl]-2-azatricyclo[3.3.1.1^3,7]decane-5-carboxylic acid]"
11,> 0.25,"CC(CC(=O)N1C2CC3CC1CC(C(=O)O)(C3)C2)c1c[nH]c2cccc(-c3ccc(F)cc3)c12 (stereo not shown) [Example 62, 2-{3-[4-(4-fluorophenyl)-1H-indol-3-yl]butanoyl}-2-azatricyclo[3.3.1.1^3,7]decane-5-carboxylic acid]"
12,> 0.25,"CC(CC(=O)N1C2CC3CC1CC(C(=O)NCc1ccc(C(=O)O)cc1)(C3)C2)c1c[nH]c2cccc(C3CC3)c12 (stereo not shown) [Example 63, 4-{[({2-[3-(4-cyclopropyl-1H-indol-3-yl)butanoyl]-2-azatricyclo[3.3.1.1^3,7]dec-5-yl}carbonyl)amino]methyl}benzoic acid]"
13,0.1 to 0.15,"CCC(CC(=O)N1C2CC3CC1CC(O)(C3)C2)c1c[nH]c2ccccc12 (stereo not shown) [Example 64, 1-(5-hydroxy-2-azatricyclo[3.3.1.1^3,7]dec-2-yl)-3-(1H-indol-3-yl)pentan-1-one]"
14,0.2 to 0.25,CC(CC(=O)N1C2CC3CC1CC(C#N)(C3)C2)c1c[nH]c2ccccc12 (stereo not shown) [Example 65]
15,> 0.25,"O=C(CC(c1c[nH]c2ccccc12)C1CC1)N1C2CC3CC1CC(O)(C3)C2 (stereo not shown) [Example 66, 3-cyclopropyl-1-(5-hydroxy-2-azatricyclo[3.3.1.1^3,7]dec-2-yl)-3-(1H-indol-3-yl)propan-1-one]"
16,0.1 to 0.15,"O=C(CC(c1ccccc1)c1c[nH]c2ccccc12)N1C2CC3CC1CC(O)(C3)C2 (stereo not shown) [Example 67, 1-(5-hydroxy-2-azatricyclo[3.3.1.1^3,7]dec-2-yl)-3-(1H-indol-3-yl)-3-phenylpropan-1-one]"
17,> 0.25,"CC(CC(=O)N1C2CC3CC1CC(O)(C3)C2)c1c[nH]c2ccc(Cl)cc12 (stereo not shown) [Example 68, 3-(5-chloro-1H-indol-3-yl)-1-(5-hydroxy-2-azatricyclo[3.3.1.1^3,7]dec-2-yl)butan-1-one]"
18,0.1 to 0.15,"CC(CC(=O)N1C2CC3CC1CC(O)(C3)C2)c1c[nH]c2cc(Cl)ccc12 (stereo not shown) [Example 69, 3-(6-chloro-1H-indol-3-yl)-1-(5-hydroxy-2-azatricyclo[3.3.1.1^3,7]dec-2-yl)butan-1-one]"
19,0.15 to 0.2,"Cc1cccc2[nH]cc(C(C)CC(=O)N3C4CC5CC3CC(C#N)(C5)C4)c12 (stereo not shown) [Example 70, 2-[3-(4-methyl-1H-indol-3-yl)butanoyl]-2-azatricyclo[3.3.1.1^3,7]decane-5-carbonitrile]"
20,> 0.25,"O=C(CC(c1ccc(Cl)cc1)c1c[nH]c2ccccc12)N1C2CC3CC1CC(O)(C3)C2 (stereo not shown) [Example 71, 3-(4-chlorophenyl)-1-(5-hydroxy-2-azatricyclo[3.3.1.1^3,7]dec-2-yl)-3-(1H-indol-3-yl)propan-1-one]"
21,> 0.25,"Cc1cccc2[nH]cc(C(CC(=O)N3C4CC5CC3CC(O)(C5)C4)c3ccccc3)c12 (stereo not shown) [Example 72, 1-(5-hydroxy-2-azatricyclo[3.3.1.1^3,7′]dec-2-yl)-3-(4-methyl-1H-indol-3-yl)-3-phenylpropan-1-one]"
